Laboratory results: ChEMBL document CHEMBL1123114, “Structure-activity relationships of arylimidazopyridine cardiotonics: discovery and inotropic activity of 2-[2-methoxy-4-(methylsulfinyl)phenyl]-1H-imidazo[4,5-c]pyridine” (1985)

Tests used:
Felis catus [1] = organism: Felis catus; assay: Compound tested for contractility in isolated cat papillary muscle at 10 e-4 M.; format: functional
Felis catus [2] = organism: Felis catus; assay: Response ratio = (percent increase to drug)/(percent increase to 10 E-5 M isoproterenol); format: functional
Canis familiaris [3] = assay: maximum percent increase in contractility in anesthetized dog when administered 4 mg/Kg intravenously; format: functional, Canis lupus familiaris
Felis catus [4] = organism: Felis catus; assay: Response ratio = (percent increase to drug)/(percent increase to 10 E-4 M isoproterenol); format: functional
Felis catus [5] = organism: Felis catus; assay: Compound tested for contractility in isolated cat papillary muscle at 10 e-5 M.; format: functional
Canis familiaris [6] = assay: Percent change in heart rate in anesthetized dog; format: functional, Canis lupus familiaris
Canis familiaris [7] = assay: Compound tested for contractility in anesthetized dog when administered intravenously.; format: functional; details: Canis lupus familiaris, iv
Canis familiaris [8] = assay: Percent change in mean arterial blood pressure in anesthetized dog; format: functional, Canis lupus familiaris
Felis catus [9] = organism: Felis catus; assay: Compound tested for contractility in isolated cat papillary muscle at 10 e-6 M.; format: functional
Felis catus [10] = organism: Felis catus; assay: Response ratio = (percent increase to drug)/(percent increase to 10 E-6 M isoproterenol); format: functional
Canis familiaris [11] = assay: Compound tested for contractility in anesthetized dog when administered intravenously; ED50 not obtained; format: functional, organism-based; details: Canis lupus familiaris
Canis familiaris [12] = assay: Percent change in mean arterial blood pressure in anesthetized dog; ED50 not obtained; format: functional, organism-based; details: Canis lupus familiaris
Canis familiaris [13] = assay: Percent change in heart rate in anesthetized dog; ED50 not obtained; format: functional, organism-based; details: Canis lupus familiaris

| Structure (SMILES) | Control (Felis catus [1]) [%] | Response ratio (Felis catus [2]) | Increase (Canis familiaris [3]) [%] | Response ratio (Felis catus [4]) | Control (Felis catus [5]) [%] | Change (Canis familiaris [6]) [%] | ED50 (Canis familiaris [7]) [mg/kg] | Change (Canis familiaris [8]) [%] | Control (Felis catus [9]) [%] | Response ratio (Felis catus [10]) | ED50 (Canis familiaris [11]) | ED50 (Canis familiaris [12]) | ED50 (Canis familiaris [13]) |
| --- | --- | --- | --- | --- | --- | --- | --- | --- | --- | --- | --- | --- | --- |
| CN(C)c1ccc(-c2nc3cc[nH]cc-3n2)cc1 | 175 | -0.08 | <50 | 1.04 | 94 |  |  |  |  |  |  |  |  |
| COc1ccc(-c2nc3cc[nH]cc-3n2)c(OC)c1 | 172 | 0.81 |  | 1 | 158 | 9 | 0.3 | -17 |  |  |  |  |  |
| CS(=O)(=O)c1ccc(-c2nc3cc[nH]cc-3n2)cc1 | 137 | 0.24 |  | 0.51 | 117 | 10 | 7.5 | 2 |  |  |  |  |  |
| CCCOc1cc([S+](C)[O-])ccc1-c1nc2cc[nH]cc-2n1 (stereo not drawn) | 159 | 0.3 |  | 0.82 | 122 | 10 | 1 | -33 |  |  |  |  |  |
| Cc1ccccc1-c1nc2cc[nH]cc-2n1 | 188 | 0.09 |  | 1.22 | 106 | 24 | 2.2 | -20 |  |  |  |  |  |
| COc1cc([N+](=O)[O-])ccc1-c1nc2cc[nH]cc-2n1 | 144 | 0.58 |  | 0.61 | 142 | 5 | 0.015 | -23 | 127 | 0.38 |  |  |  |
| COc1ccc(-c2nc3ccc[nH]c-3n2)c(OC)c1 | 264 | 1 |  | 2.27 | 172 | 18 | 0.8 | -22 |  |  |  |  |  |
| COc1ccc(-c2nc3cc[nH]cc-3n2)c(OCC[S+](C)[O-])c1 (stereo not drawn) | 186 | 0.32 |  | 1.19 | 123 | -4 | 5.2 | -37 |  |  |  |  |  |
| Cc1ccc(-c2nc3cc[nH]cc-3n2)cc1C | 226 | 0.46 |  | 1.75 | 133 | 0 | 5.2 | -53 |  |  |  |  |  |
| Cc1ccc(-c2nc3cc[nH]cc-3n2)c(C)c1 | 100 | -0.1 |  | 0 | 93 | 12 | 1.4 | -24 |  |  |  |  |  |
| COc1cc([S+](C)[O-])ccc1-c1nc2cccnc2[nH]1 (stereo not drawn) [SULMAZOLE] | 156 | 0.16 |  | 0.78 | 112 | 13 | 0.3 | -10 |  |  |  |  |  |
| COc1ccc(-c2nc3cccnc3[nH]2)cc1 | 173 | 0.06 |  | 1.01 | 104 |  |  |  |  |  | ED50 not obtained | ED50 not obtained | ED50 not obtained |
| COc1cc(OS(C)(=O)=O)ccc1-c1nc2cc[nH]cc-2n1 | 326 | 1.94 |  | 3.13 | 240 | 17 | 0.006 | -25 |  |  |  |  |  |
| COc1cc(Oc2ccccc2)ccc1-c1nc2cc[nH]cc-2n1 | 155 | 0.3 | <50 | 0.76 | 122 |  |  |  |  |  |  |  |  |
| COc1ccc(-c2nc3c[nH]cnc-3n2)c(OC)c1 | 215 | 0.24 |  | 1.59 | 117 | 7 | 0.3 | -15 |  |  |  |  |  |
| COc1cc([S+](C)[O-])ccc1-c1nc2cnccc2[nH]1 (stereo not drawn) [ISOMAZOLE] | 268 | 1 |  | 2.33 | 172 | 7 | 0.03 | -1 |  |  |  |  |  |
| COc1cc(S(C)(=O)=O)ccc1-c1nc2ccc[nH]c-2n1 | 129 | 0.28 |  | 0.4 | 120 | 10 | 0.4 | -20 |  |  |  |  |  |
| COc1cc(Cl)ccc1-c1nc2cc[nH]cc-2n1 | 165 | 0.86 |  | 0.9 | 162 | 14 | 0.23 | -21 | 123 | 0.32 |  |  |  |
| CSc1ccc(-c2nc3cc[nH]cc-3n2)cc1 | 212 | 0.21 |  | 1.55 | 115 | 0 | 4 | -15 |  |  |  |  |  |
| COc1ccc(-c2nc3cc[nH]cc-3n2)cc1 | 205 | 0.07 |  | 1.46 | 104 | 17 | 1.7 | -14 |  |  |  |  |  |
| CCCCOc1ccc(-c2nc3cc[nH]cc-3n2)cc1 | 288 | 0.19 |  | 2.61 | 114 |  |  |  |  | 0.19 |  |  |  |
| CCCOc1cc(OC)ccc1-c1nc2cc[nH]cc-2n1 | 336 | 0.47 |  | 3.27 | 134 | -7 | 1.3 | -59 |  |  |  |  |  |
| COc1cc(C)ccc1-c1nc2cc[nH]cc-2n1 | 202 | 0.24 |  | 1.42 | 117 | 8 | 0.28 | -7 |  |  |  |  |  |
| CCOc1cc([S+](C)[O-])ccc1-c1nc2cc[nH]cc-2n1 (stereo not drawn) | 262 | 1.15 |  | 2.25 | 183 | 14 | 0.1 | -4 | 113 | 0.18 |  |  |  |
| COc1cc([S+](C)[O-])ccc1-c1nc2c[nH]cnc-2n1 (stereo not drawn) | 142 | 0.21 |  | 0.58 | 115 | 8 | 0.6 | 14 |  |  |  |  |  |
| c1ccc(-c2nc3cc[nH]cc-3n2)cc1 | 242 | 0.08 |  | 1.97 | 106 | 13 | 2.5 | -15 |  |  |  |  |  |
| Cc1cccc(-c2nc3cc[nH]cc-3n2)c1 | 195 | 0.25 |  | 1.32 | 118 | 17 | 1 | -20 |  |  |  |  |  |
| CCSCCOc1cc(OC)ccc1-c1nc2cc[nH]cc-2n1 | 134 | 0.39 |  | 0.47 | 128 | 20 | 1 | -21 |  |  |  |  |  |
| COc1cc(S(C)(=O)=O)ccc1-c1nc2ccncc2[nH]1 | 221 | 1.05 |  | 1.68 | 176 | 8 | 0.02 | -5 |  |  |  |  |  |
